In patent US20040152119A1, “Solid phase sequencing” (priority 2003, published 2004):

Tested on: cloned DNA polymerase I genetically engineered to eliminate 3′-5′ exonuclease activity, 5′-3′exonuclease activity and discrimination against dideoxynucleotides
Experiment: Nucleic acid sequence detection by polymerase incorporation of gamma-phosphate-labeled dideoxynucleotide in the presence of shrimp alkaline phosphatase (fluorescence)
Format: biochemical
Conditions: 23° C.; for dye emission with Primer: Template 1: next template nucleotide dC (SEQ ID NO: 2); for dye emission with Primer: Template 2: next template nucleotide dT (SEQ ID NO: 3)
Experimental: Reactions were assembled at room temperature (23° C.) using the dideoxynucleotide of Example (1). Reactions contained primer template combinations having a single oligonucleotide primer (represented by SEQ ID NO: 1) annealed to one of two different oligonucleotide templates with either a dC or a dT as the next template nucleotide adjacent the 3′ terminus of the primer, corresponding to SEQ ID NO: 2 and SEQ ID NO: 3, respectively.
Referring now to FIG. 1, for template 1 (SEQ ID NO: 2) in the present example, DNA polymerase would be expected to extend the primer with labeled ddGTP. Similarly, for template 2 (SEQ ID NO: 3) in FIG. 1, DNA polymerase would be expected to extend the primer with ddATP, but not with labeled ddGTP.
Reaction conditions: A 70 μl reaction containing 25 mM Tris, pH 8.0, 5% glycerol 5 mM MgC12, 0.5 mM beta-mercaptoethanol, 0.01% tween-20, 0.25 units shrimp alkaline phosphatase, 100 nM primer annealed to template (the next template nucleotide is either dCMP or dTMP, as indicated), and 2 μM ddGTP-CF3-Coumarin was assembled in a quartz fluorescence ultra-microcuvet in a LS-55 Luminescence Spectrometer (Perkin Elmer), operated in time drive mode. Excitation and emission wavelengths are 390 nm and 500 nm respectively. Slit widths were 5 nm for excitation slits, 15 nm for emission slits. The reaction was initiated by the addition of 0.35 μl (11 units) of a cloned DNA polymerase I genetically engineered to eliminate 3′-5′ exonuclease activity, 5′-3′exonuclease activity and discrimination against dideoxynucleotides and 0.25 mM MnCl2. […]

[1] = 2 μM ddATP-CN-Coumarin, excitation 410 nm, emission 450 nm, FIG. 2
[2] = 2 μM ddGTP-CF3-Coumarin, excitation 390 nm, emission 500 nm, FIG. 1

N#Cc1cc2ccc(OP(=O)(O)OP(=O)(O)OP(=O)(O)OC[C@@H]3CC[C@H](n4cnc5c(N)ncnc54)O3)cc2oc1=O [gamma labeled ddATP, γ-(3-Cyanocoumarinyl)ddATP]
dye emission with Primer: Template 1 [1]: No detectable dye emission | dye emission with Primer: Template 2 [1]: dye emission was detected

Nc1nc2c(ncn2[C@H]2CC[C@@H](COP(=O)(O)OP(=O)(O)OP(=O)(O)Oc3ccc4c(C(F)(F)F)cc(=O)oc4c3)O2)c(=O)[nH]1 [gamma labeled ddGTP, γ-(4-trifluoromethylcoumarinyl)ddGTP]
dye emission with Primer: Template 1 [2]: dye emission was detected | dye emission with Primer: Template 2 [2]: No detectable dye emission
